Among the data in ChEMBL document CHEMBL3991601, “The target landscape of clinical kinase drugs” (Science, 2017) are Kd values, retold here.

Active and inactive are the calls of the source.

Assay [1] concerns the target T1, Serine/threonine-protein kinase A-Raf (Homo sapiens, UniProt P10398).
T1 sequence (P10398 whole entry): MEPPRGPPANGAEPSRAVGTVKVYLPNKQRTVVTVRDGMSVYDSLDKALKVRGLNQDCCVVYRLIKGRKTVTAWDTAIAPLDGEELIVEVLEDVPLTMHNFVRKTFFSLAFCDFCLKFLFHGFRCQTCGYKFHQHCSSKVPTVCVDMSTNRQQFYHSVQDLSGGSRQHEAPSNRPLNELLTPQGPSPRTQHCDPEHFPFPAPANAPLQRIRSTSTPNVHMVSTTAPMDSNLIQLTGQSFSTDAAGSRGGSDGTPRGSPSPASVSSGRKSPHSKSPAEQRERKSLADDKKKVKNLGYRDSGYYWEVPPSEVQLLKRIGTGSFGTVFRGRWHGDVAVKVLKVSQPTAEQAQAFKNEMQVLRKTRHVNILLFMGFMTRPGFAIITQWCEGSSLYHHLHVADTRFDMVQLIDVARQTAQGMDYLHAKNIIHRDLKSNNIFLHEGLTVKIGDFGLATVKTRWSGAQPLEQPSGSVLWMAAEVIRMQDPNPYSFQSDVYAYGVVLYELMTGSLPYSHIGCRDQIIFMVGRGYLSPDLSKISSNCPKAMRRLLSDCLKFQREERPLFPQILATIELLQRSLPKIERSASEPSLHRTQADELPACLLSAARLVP

The next assay has as its target LIM domain kinase 1 (Homo sapiens, UniProt P53667).
The target of assay [2] is S-adenosylmethionine synthase isoform type-2 (Homo sapiens, UniProt P31153).
For another assay, the target named is Midasin (Homo sapiens, UniProt Q9NU22).
In assay [3] the target is T2, Serine/threonine-protein kinase NLK (Homo sapiens, UniProt Q9UBE8).
T2 sequence (Q9UBE8 whole entry): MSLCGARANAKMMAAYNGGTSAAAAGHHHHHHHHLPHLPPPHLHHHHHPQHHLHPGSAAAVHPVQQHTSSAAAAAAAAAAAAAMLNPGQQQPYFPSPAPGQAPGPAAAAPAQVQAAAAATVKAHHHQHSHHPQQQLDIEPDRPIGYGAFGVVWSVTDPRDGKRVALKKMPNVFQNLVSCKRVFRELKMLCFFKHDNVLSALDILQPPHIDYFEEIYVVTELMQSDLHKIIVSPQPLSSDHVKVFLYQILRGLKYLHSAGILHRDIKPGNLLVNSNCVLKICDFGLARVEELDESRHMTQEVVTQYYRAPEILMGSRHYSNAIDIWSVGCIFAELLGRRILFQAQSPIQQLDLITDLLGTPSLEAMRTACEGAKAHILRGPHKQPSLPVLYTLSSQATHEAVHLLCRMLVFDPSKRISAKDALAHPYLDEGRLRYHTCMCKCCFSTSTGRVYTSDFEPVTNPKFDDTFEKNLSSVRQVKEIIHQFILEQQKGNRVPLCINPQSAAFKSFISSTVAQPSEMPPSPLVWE

Assay [4] deals with T3, Dynamin-like GTPase OPA1, mitochondrial (Homo sapiens, UniProt O60313).
T3 sequence (O60313 whole entry): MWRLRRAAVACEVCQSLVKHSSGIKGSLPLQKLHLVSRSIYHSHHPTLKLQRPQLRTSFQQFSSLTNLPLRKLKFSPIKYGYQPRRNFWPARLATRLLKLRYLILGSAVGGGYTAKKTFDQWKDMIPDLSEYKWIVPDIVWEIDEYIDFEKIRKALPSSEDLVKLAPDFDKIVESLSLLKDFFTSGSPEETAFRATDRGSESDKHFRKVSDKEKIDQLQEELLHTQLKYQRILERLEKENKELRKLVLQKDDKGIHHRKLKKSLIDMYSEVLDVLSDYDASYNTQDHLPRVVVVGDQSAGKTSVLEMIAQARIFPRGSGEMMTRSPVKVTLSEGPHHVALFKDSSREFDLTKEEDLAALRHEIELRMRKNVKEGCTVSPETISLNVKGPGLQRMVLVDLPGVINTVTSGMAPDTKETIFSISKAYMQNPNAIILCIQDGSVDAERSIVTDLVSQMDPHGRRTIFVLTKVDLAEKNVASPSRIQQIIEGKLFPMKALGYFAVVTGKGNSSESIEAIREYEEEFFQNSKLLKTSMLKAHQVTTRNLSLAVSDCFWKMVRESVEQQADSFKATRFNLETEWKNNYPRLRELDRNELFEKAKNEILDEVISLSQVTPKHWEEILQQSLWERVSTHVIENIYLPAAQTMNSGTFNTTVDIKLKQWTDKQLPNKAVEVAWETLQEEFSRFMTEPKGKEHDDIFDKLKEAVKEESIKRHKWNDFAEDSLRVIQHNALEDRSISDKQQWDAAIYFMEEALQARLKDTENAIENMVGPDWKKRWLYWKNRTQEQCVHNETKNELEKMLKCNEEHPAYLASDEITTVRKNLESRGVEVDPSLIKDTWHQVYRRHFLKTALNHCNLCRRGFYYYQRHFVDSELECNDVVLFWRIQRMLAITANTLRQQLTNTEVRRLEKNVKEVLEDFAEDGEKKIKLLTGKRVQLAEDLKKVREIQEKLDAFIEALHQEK

The target in assay [5] is Platelet-derived growth factor receptor beta (Homo sapiens, UniProt P09619).
Assay [6] has as its target T4, Ras-related protein Rab-10 (Homo sapiens, UniProt P61026).
T4 sequence (P61026 whole entry): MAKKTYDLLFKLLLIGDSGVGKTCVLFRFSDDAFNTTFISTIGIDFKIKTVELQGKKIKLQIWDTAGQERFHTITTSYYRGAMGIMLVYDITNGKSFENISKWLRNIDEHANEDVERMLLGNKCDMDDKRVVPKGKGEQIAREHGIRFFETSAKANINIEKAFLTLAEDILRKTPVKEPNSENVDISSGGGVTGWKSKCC

The target of assay [7] is Protein kinase C alpha type (Homo sapiens, UniProt P17252).
Further: in the data inactive means no Kd found up to 30 µM.

Sequence of S-adenosylmethionine synthase isoform type-2 (P31153 whole entry, canonical isoform): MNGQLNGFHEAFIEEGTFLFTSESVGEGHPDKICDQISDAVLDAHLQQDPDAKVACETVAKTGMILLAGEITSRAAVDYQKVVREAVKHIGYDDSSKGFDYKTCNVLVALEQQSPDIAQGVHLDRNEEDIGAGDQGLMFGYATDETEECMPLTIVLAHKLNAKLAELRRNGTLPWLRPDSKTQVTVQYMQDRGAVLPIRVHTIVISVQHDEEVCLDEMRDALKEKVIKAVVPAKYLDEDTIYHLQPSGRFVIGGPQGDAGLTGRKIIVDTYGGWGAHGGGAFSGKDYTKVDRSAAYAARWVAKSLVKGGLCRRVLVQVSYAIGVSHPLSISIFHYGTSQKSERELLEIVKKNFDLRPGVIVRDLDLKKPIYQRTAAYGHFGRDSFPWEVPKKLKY
Sequence of Platelet-derived growth factor receptor beta (P09619 whole entry): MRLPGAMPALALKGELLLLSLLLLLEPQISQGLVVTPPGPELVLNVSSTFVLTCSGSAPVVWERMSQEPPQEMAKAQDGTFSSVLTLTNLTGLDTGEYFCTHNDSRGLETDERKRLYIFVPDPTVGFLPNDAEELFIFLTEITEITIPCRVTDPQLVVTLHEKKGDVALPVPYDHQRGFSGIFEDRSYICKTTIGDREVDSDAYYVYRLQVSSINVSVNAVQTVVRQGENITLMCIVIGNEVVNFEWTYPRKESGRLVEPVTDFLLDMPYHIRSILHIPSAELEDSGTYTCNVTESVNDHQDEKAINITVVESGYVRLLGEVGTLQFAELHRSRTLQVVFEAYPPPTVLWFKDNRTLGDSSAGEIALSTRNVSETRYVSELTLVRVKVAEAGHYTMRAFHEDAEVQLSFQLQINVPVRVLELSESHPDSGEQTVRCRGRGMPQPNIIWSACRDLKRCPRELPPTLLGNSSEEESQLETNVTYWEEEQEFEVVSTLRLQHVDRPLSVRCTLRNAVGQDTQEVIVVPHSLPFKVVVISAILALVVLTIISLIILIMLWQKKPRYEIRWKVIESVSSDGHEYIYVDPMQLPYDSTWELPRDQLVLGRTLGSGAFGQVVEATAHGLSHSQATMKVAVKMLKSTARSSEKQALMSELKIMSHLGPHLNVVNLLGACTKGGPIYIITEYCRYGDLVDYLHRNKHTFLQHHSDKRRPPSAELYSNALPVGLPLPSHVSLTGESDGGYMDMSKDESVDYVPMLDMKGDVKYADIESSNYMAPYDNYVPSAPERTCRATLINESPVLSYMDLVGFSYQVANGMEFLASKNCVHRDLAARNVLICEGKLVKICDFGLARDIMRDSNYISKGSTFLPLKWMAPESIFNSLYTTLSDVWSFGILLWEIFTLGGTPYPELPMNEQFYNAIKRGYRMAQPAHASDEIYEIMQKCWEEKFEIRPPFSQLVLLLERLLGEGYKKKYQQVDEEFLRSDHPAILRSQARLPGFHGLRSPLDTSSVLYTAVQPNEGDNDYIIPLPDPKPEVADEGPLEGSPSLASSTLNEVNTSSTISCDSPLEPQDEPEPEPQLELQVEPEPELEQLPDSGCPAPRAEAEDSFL
Sequence of LIM domain kinase 1 (P53667 whole entry, the tested form may be a part, canonical isoform): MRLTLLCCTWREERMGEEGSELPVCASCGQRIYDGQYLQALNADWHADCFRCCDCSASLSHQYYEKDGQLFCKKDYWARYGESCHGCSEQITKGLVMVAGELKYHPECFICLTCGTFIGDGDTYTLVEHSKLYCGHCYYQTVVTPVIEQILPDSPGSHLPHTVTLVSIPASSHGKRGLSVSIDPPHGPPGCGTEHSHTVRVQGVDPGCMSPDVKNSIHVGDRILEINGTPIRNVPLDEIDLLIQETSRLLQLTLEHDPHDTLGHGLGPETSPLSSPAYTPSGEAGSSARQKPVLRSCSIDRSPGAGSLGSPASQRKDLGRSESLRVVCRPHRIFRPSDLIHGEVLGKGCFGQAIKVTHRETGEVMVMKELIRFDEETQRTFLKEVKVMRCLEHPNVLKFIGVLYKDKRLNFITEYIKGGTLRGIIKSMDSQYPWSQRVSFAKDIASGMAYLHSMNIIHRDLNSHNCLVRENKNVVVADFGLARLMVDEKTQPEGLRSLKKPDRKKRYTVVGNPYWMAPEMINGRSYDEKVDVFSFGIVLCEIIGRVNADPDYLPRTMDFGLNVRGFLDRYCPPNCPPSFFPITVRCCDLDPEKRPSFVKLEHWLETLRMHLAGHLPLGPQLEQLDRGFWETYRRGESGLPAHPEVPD

The term Kd denotes the constant that tells how readily two partners part at equilibrium. Regarding `CCc1nc(C(N)=O)c(Nc2ccc(N3CCC(N4CCN(C)CC4)CC3)c(OC)c2)nc1NC1CCOCC1` [GILTERITINIB], the Kd (in [1]; at LIM domain kinase 1; in assay [2]; at Midasin; in assay [3]; in assay [4]) was > 30 µM (inactive) in each case. Besides, the Kd in assay [5] is 0.51 µM (active); in assay [6], > 30 µM (inactive).
In the case of `Cc1cc(Nc2nc(N[C@@H](C)c3ncc(F)cn3)ncc2Cl)n[nH]1` [AZD-1480], the Kd (in [1]; at LIM domain kinase 1; in [2]; on Midasin; in [3]; in assay [4]) was > 30 µM (inactive) in each case. Moreover, the Kd in [5], in [7] and in assay [6] was > 30 µM (inactive) in each case.
Take `Cc1ccc(C(=O)Nc2ccc(Oc3cc4cnn(C)c4cc3-c3cn[nH]c3)c(F)c2)c(=O)n1-c1ccc(F)cc1` [MERESTINIB]: the Kd (in assay [1]; at LIM domain kinase 1; in [2]; on Midasin; in assay [3]; in assay [4]) was > 30 µM (inactive) in each case. Also, the Kd in [5], in assay [7] and in [6] was > 30 µM (inactive) throughout.
Take `CCOc1ccn(-c2ccc(F)cc2)c(=O)c1C(=O)Nc1ccc(Oc2ccnc(N)c2Cl)c(F)c1` [BMS-777607]: the Kd (on LIM domain kinase 1; in assay [2]; at Midasin; in assay [3]; in assay [4]; in assay [5]) was > 30 µM (inactive) in each case. The Kd in assay [7] was > 30 µM (inactive).
For the compound `FC(F)(F)c1ccc(CNc2ccc(Cc3c[nH]c4ncc(Cl)cc34)cn2)cn1` [PEXIDARTINIB], the Kd (in assay [1]; at LIM domain kinase 1; at Midasin; in [3]; in assay [4]; in assay [5]) was > 30 µM (inactive) throughout. Also, the Kd in assay [7] and in [6] was > 30 µM (inactive) throughout.
Take `CNC(=O)c1cc(COc2nnc(Nc3ccc(Cl)cc3)c3ccoc23)ccn1` [TELATINIB]: the Kd in [1] was > 30 µM (inactive); at LIM domain kinase 1, > 30 µM (inactive); in assay [2] it was > 30 µM (inactive); in assay [3] it was > 30 µM (inactive); in assay [4], > 30 µM (inactive); in assay [5], 0.555 µM (active). Further, the Kd in [7] and in assay [6] was > 30 µM (inactive) throughout.
Consider `N#CCNC(=O)c1ccc(-c2ccnc(Nc3ccc(N4CCOCC4)cc3)n2)cc1` [MOMELOTINIB], for which the Kd (in assay [1]; on LIM domain kinase 1; in [2]; on Midasin; in assay [3]; in assay [5]) was > 30 µM (inactive) throughout. For the same compound, the Kd in assay [7] is > 30 µM (inactive).
Take `O=S(=O)(c1cccc2c(O)nccc12)N1CCCNCC1` [HYDROXYFASUDIL]: the Kd (in assay [1]; on LIM domain kinase 1; in assay [2]; on Midasin; in assay [3]; in [4]) was > 30 µM (inactive) throughout. Besides, the Kd in assay [5] and in assay [6] was > 30 µM (inactive) throughout.
Consider `CC(C)CC(=O)Nc1[nH]nc2c1CN(C(=O)C1CCN(C)CC1)C2(C)C` [PHA-793887], for which the Kd (in assay [1]; at LIM domain kinase 1; in [2]; on Midasin; in assay [4]; in assay [5]) was > 30 µM (inactive) each time. Also, the Kd in assay [7] and in [6] was > 30 µM (inactive) each time.
Take `C[C@]1(O)C[C@@H](c2nc(-c3ccc4ccc(-c5ccccc5)nc4c3)c3c(N)nccn32)C1` [LINSITINIB]: the Kd (in assay [1]; at LIM domain kinase 1; in assay [2]; on Midasin; in assay [3]; in assay [4]) was > 30 µM (inactive) throughout. For the same compound, the Kd in assay [5] and in assay [6] was > 30 µM (inactive) throughout.
`COc1cc2ncnc(Nc3ccc(F)c(Cl)c3)c2cc1NC(=O)/C=C/CN1CCCCC1` [DACOMITINIB ANHYDROUS]: the Kd (in [1]; on LIM domain kinase 1; in assay [2]; at Midasin; in [3]; in [4]) was > 30 µM (inactive) each time. Further, the Kd in [5] and in assay [7] was > 30 µM (inactive) each time.
As for `O=C(NOC[C@H](O)CO)c1ccc(F)c(F)c1Nc1ccc(I)cc1F` [MIRDAMETINIB], the Kd (in assay [1]; on LIM domain kinase 1; in assay [3]; in assay [4]; in assay [5]; in [7]) was > 30 µM (inactive) in each case. Further, in [6], the Kd was > 30 µM (inactive).
Consider `NC[C@@](O)(c1ccc(Cl)cc1)c1ccc(-c2cn[nH]c2)cc1` [AT-13148], for which the Kd (on LIM domain kinase 1; in assay [2]; at Midasin; in assay [3]; in [4]; in assay [5]) was > 30 µM (inactive) in each case. Also, the Kd in assay [7] and in assay [6] was > 30 µM (inactive) in each case.
